In patent US20250051347A1, “BIFUNCTIONAL CHIMERIC HETEROCYCLIC COMPOUND AND USE THEREOF AS ANDROGEN RECEPTOR DEGRADER” (Hinova Pharmaceuticals, Inc., priority 2021, published 2025):

target: T1, androgen receptor (AR) splicing variant AR-v7 (Homo sapiens, UniProt P10275); assay: Degradation activity on androgen receptor splicing variant AR-v7 in 22RV1 cells (ELISA); type: cell-based; conditions: AR-v7 degradation in 22RV1 cells, 48 h, class symbols
T1 construct: The degradation activity of compounds on AR-v7 in 22RV1 cells; host or cells: 22RV1 cells
T1 sequence (P10275 1-644 isoform P10275-3): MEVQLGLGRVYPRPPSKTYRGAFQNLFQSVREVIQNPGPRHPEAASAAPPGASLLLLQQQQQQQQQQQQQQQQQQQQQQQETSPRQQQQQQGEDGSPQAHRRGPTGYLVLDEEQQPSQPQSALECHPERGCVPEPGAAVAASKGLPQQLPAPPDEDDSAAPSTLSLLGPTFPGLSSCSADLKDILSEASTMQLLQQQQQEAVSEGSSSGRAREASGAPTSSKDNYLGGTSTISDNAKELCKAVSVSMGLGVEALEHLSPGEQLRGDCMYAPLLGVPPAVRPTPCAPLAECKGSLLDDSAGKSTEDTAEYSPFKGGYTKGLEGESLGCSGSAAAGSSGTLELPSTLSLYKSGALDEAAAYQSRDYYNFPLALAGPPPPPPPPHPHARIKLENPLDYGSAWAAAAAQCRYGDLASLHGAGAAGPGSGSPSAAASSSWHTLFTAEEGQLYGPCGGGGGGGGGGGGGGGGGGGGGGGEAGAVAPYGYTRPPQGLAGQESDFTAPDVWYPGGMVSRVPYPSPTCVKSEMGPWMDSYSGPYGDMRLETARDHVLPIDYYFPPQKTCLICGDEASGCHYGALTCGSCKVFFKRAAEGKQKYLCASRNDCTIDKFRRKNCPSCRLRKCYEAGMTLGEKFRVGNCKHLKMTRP

DC50, 11 to 100 nM:
CC(C)(c1ccc(OCc2ccnc(N3CCC4(CC3)COC4)n2)cc1)c1ccc(OC2CC(Nc3ccc4c(c3)C(=O)N(C3CCC(=O)NC3=O)C4=O)C2)cc1 (stereo not drawn) [Example 78, 5-((3-(4-(2-(4-((2-(2-oxa-7-azaspiro[3.5]nonan-7-yl)pyrimidin-4-yl)methoxy)phenyl)propan-2-yl)phenoxy)cyclobutyl)amino)-2-(2,6-dioxopiperidin-3-yl)isoindolin-1,3-dione]
CN1CCC2(CCN(c3nccc(COc4ccc(C(C)(C)c5ccc(OC6CC(Nc7ccc8c(c7)C(=O)N(C7CCC(=O)NC7=O)C8=O)C6)cc5)cc4)n3)C2)C1 (stereo not drawn) [Example 79, 2-(2,6-dioxopiperidin-3-yl)-5-((3-(4-(2-(4-((2-(7-methyl-2,7-diazaspiro[4.4]nonan-2-yl)pyrimidin-4-yl)methoxy)phenyl)propan-2-yl)phenoxy)cyclobutyl)amino)isoindolin-1,3-dione]
CC(C)(c1ccc(OCc2ccnc(N3CC4CNCC4C3)n2)cc1)c1ccc(OC2CC(Nc3ccc4c(c3)C(=O)N(C3CCC(=O)NC3=O)C4=O)C2)cc1 (stereo not drawn) [Example 80]
CC(C)(c1ccc(OCc2ccnc(N3CCC4(CCNC4)C3)n2)cc1)c1ccc(O[C@H]2C[C@H](Nc3ccc4c(c3)C(=O)N(C3CCC(=O)NC3=O)C4=O)C2)cc1 (stereo partly drawn) [Example 81, 5-(((1r,3r)-3-(4-(2-(4-((2-(2,7-diazaspiro[4.4]nonan-2-yl)pyrimidin-4-yl)methoxy)phenyl)propan-2-yl)phenoxy)cyclobutyl)amino)-2-(2,6-dioxopiperidin-3-yl)isoindolin-1,3-dione]
CC(C)(c1ccc(OCc2ccnc(N3CCC4(CNC4)C3)n2)cc1)c1ccc(O[C@H]2C[C@H](Nc3ccc4c(c3)C(=O)N(C3CCC(=O)NC3=O)C4=O)C2)cc1 (stereo partly drawn) [Example 83, 5-(((1r,3r)-3-(4-(2-(4-((2-(2,6-diazaspiro[3.4]octan-6-yl)pyrimidin-4-yl)methoxy)phenyl)propan-2-yl)phenoxy)cyclobutyl)amino)-2-(2,6-dioxopiperidin-3-yl)isoindolin-1,3-dione]
CC(C)(c1ccc(OCc2ccnc(N3CCC4(CC3)CNC4)n2)cc1)c1ccc(O[C@H]2C[C@@H](Nc3ccc4c(c3)C(=O)N(C3CCC(=O)NC3=O)C4=O)C2)cc1 (stereo partly drawn) [Example 84, 5-(((1s,3s)-3-(4-(2-(4-((2-(2,7-diazaspiro[3.5]nonan-7-yl)pyrimidin-4-yl)methoxy)phenyl)propan-2-yl)phenoxy)cyclobutyl)amino)-2-(2,6-dioxopiperidin-3-yl)isoindolin-1,3-dione]
CC(C)(c1ccc(OCc2ccnc(N3CC4(CCNCC4)C3)n2)cc1)c1ccc(O[C@H]2C[C@@H](Nc3ccc4c(c3)C(=O)N(C3CCC(=O)NC3=O)C4=O)C2)cc1 (stereo partly drawn) [Example 85, 5-(((1s,3s)-3-(4-(2-(4-((2-(2,7-diazaspiro[3.5]nonan-2-yl)pyrimidin-4-yl)methoxy)phenyl)propan-2-yl)phenoxy)cyclobutyl)amino)-2-(2,6-dioxopiperidin-3-yl)isoindolin-1,3-dione]
CC(C)(c1ccc(OCc2ccnc(N3CC4(CNC4)C3)n2)cc1)c1ccc(O[C@H]2C[C@@H](Nc3ccc4c(c3)C(=O)N(C3CCC(=O)NC3=O)C4=O)C2)cc1 (stereo partly drawn) [Example 86]
CC(C)(c1ccc(OCc2ccnc(N3CCC4(CC3)COC4)n2)cc1)c1ccc(O[C@H]2C[C@@H](Nc3ccc4c(c3)C(=O)N(C3CCC(=O)NC3=O)C4=O)C2)cc1 (stereo partly drawn) [Example 87, 5-(((1s,3s)-3-(4-(2-(4-((2-(2-oxa-7-azaspiro[3.5]nonan-7-yl)pyrimidin-4-yl)methoxy)phenyl)propan-2-yl)phenoxy)cyclobutyl)amino)-2-(2,6-dioxopiperidin-3-yl)isoindolin-1,3-dione]
